According to patent US20190231757A1, “COMBINATION OF SPLEEN TYROSINE KINASE INHIBITORS AND OTHER THERAPEUTIC AGENTS” (Takeda Pharmaceutical Company Limited, priority 2016, published 2019):
Where a name gives a salt, the structure may show the parent alone.

Assays:
TMD8 DLBCL xenografts = assay: Antitumor activity in CB17 SCID mice bearing TMD8 DLBCL xenografts, bendamustine combination (Example 3); assay type: in vivo, mouse; conditions: bendamustine 1 mg/kg IV BIW, alone or combined, Day 14
Ly19 xenografts = assay: Antitumor activity in SCID mice bearing Ly19 xenografts, bendamustine combination (Example 4); assay type: in vivo, mouse; conditions: alone or combined
[1] = Day 14, Compound A 60 mg/kg PO QD x14, bendamustine 1.0 mg/kg IV BIW x2

For `Cn1cc(-c2nc(N[C@@H]3CCCC[C@@H]3N)c(F)c3c2C(=O)NC3)cn1` [Compound A, 6-((1R,2S)-2-aminocyclohexylamino)-7-fluoro-4-(1-methyl-1H-pyrazol-4-yl)-1H-pyrrolo[3,4-c]pyridine-3 (2H)-one citrate], the “Mean Tumor Volume (mm^3) ± SEM” value (TMD8 DLBCL xenografts; Compound A 60 mg/kg PO QD 14 d) was 1,085.5 ± 173.3 mm^3, the T/C (TMD8 DLBCL xenografts; Compound A 60 mg/kg PO QD) was 0.61 and the “TGI (%)” value (TMD8 DLBCL xenografts; Compound A 60 mg/kg PO QD) was 38.5%. The “Mean Tumor Volume (mm^3) ± SEM at Day 14” value (Ly19 xenografts; [1]) was 1683.9 ± 167.1 mm^3, the “TGI (%)” value (Ly19 xenografts; [1]) was 32.6% and the dAUC (Ly19 xenografts; vs vehicle, Compound A 60 mg/kg, bendamustine 1.0 mg/kg) was 18.8.
